# Assay results reported in ChEMBL document CHEMBL3885861, “Open TG-GATES”.
# Organism: Rattus norvegicus
# Test: Open TG-GATES - Regimen: Single
# Type: toxicity, organism-based, Sprague-Dawley
# Set-up: regimen Single, gender Male, age 6 weeks
# Conditions: in vivo, iv, route intravenous injection; for KIDNEY_L / KIDNEY_R / KIDNEY_TOTAL: tissue Kidney; for LIVER: tissue Liver; for ALP / ALT / AST / CRE / DBIL / GLC / IP / K / LDH / PL / RALB / TBIL / TC / TG / TP / gamma-GTP / BUN: tissue Plasma
# [1] = 10 mg/kg, 3 h, tissue Blood, dose level Low
# [2] = 10 mg/kg, 6 h, tissue Blood, dose level Low
# [3] = 10 mg/kg, 9 h, tissue Blood, dose level Low
# [4] = 10 mg/kg, 24 h, tissue Blood, dose level Low
# [5] = 30 mg/kg, 3 h, tissue Blood, dose level Middle
sequence,measurement,setting,value
GENTAMICIN,Lym,[1],78.8%
same,MCH,[1],21.8 pg
same,MCHC,[1],34.1%
same,MCV,[1],64 fL
same,Mono,[1],3%
same,Neu,[1],17%
same,PT,[1],16.2 s
same,Plat,[1],121.8 x10_4/uL
same,RBC,[1],595.2 x10_4/ul
same,Ret,[1],7.2%
same,WBC,[1],114 x10_2/uL
same,KIDNEY_L,"10 mg/kg, 3 h, dose level Low",0.9 g
same,KIDNEY_R,"10 mg/kg, 3 h, dose level Low",1 g
same,KIDNEY_TOTAL,"10 mg/kg, 3 h, dose level Low",1.9 g
same,LIVER,"10 mg/kg, 3 h, dose level Low",9.7 g
same,ALP,"10 mg/kg, 3 h, dose level Low",1674.8 IU/L
same,ALT,"10 mg/kg, 3 h, dose level Low",40.6 IU/L
same,AST,"10 mg/kg, 3 h, dose level Low",72.8 IU/L
same,CRE,"10 mg/kg, 3 h, dose level Low",0.2 mg/dL
same,DBIL,"10 mg/kg, 3 h, dose level Low",0.002 mg/dL
same,GLC,"10 mg/kg, 3 h, dose level Low",181.2 mg/dL
same,IP,"10 mg/kg, 3 h, dose level Low",7.8 mg/dL
same,K,"10 mg/kg, 3 h, dose level Low",4.2 meq/L
same,LDH,"10 mg/kg, 3 h, dose level Low",188 IU/L
same,PL,"10 mg/kg, 3 h, dose level Low",131.8 mg/dL
same,RALB,"10 mg/kg, 3 h, dose level Low",2.9 g/dL
same,TBIL,"10 mg/kg, 3 h, dose level Low",0.018 mg/dL
same,TC,"10 mg/kg, 3 h, dose level Low",66.6 mg/dL
same,TG,"10 mg/kg, 3 h, dose level Low",91.4 mg/dL
same,TP,"10 mg/kg, 3 h, dose level Low",5.3 g/dL
same,gamma-GTP,"10 mg/kg, 3 h, dose level Low",1.4 IU/L
same,TERMINAL_BW,"10 mg/kg, 6 h, dose level Low",207.8 g
same,APTT,[2],23.6 s
same,Bas,[2],0%
same,Eos,[2],0.8%
same,Fbg,[2],282.6 mg/dL
same,Ht,[2],39.5%
same,Lym,[2],83%
same,MCH,[2],21 pg
same,Mono,[2],2.8%
same,PT,[2],15.9 s
same,Plat,[2],131.7 x10_4/uL
same,RBC,[2],634.2 x10_4/ul
same,Ret,[2],6.8%
same,WBC,[2],102.7 x10_2/uL
same,KIDNEY_L,"10 mg/kg, 6 h, dose level Low",0.9 g
same,KIDNEY_R,"10 mg/kg, 6 h, dose level Low",0.9 g
same,KIDNEY_TOTAL,"10 mg/kg, 6 h, dose level Low",1.8 g
same,LIVER,"10 mg/kg, 6 h, dose level Low",8.7 g
same,ALP,"10 mg/kg, 6 h, dose level Low",1173 IU/L
same,ALT,"10 mg/kg, 6 h, dose level Low",36.4 IU/L
same,AST,"10 mg/kg, 6 h, dose level Low",68.8 IU/L
same,CRE,"10 mg/kg, 6 h, dose level Low",0.2 mg/dL
same,DBIL,"10 mg/kg, 6 h, dose level Low",0.002 mg/dL
same,GLC,"10 mg/kg, 6 h, dose level Low",175 mg/dL
same,IP,"10 mg/kg, 6 h, dose level Low",9.1 mg/dL
same,K,"10 mg/kg, 6 h, dose level Low",4.3 meq/L
same,LDH,"10 mg/kg, 6 h, dose level Low",216.2 IU/L
same,PL,"10 mg/kg, 6 h, dose level Low",139.6 mg/dL
same,RALB,"10 mg/kg, 6 h, dose level Low",3 g/dL
same,TBIL,"10 mg/kg, 6 h, dose level Low",0.022 mg/dL
same,TC,"10 mg/kg, 6 h, dose level Low",77.6 mg/dL
same,TG,"10 mg/kg, 6 h, dose level Low",74.8 mg/dL
same,TP,"10 mg/kg, 6 h, dose level Low",5.4 g/dL
same,gamma-GTP,"10 mg/kg, 6 h, dose level Low",1.6 IU/L
same,TERMINAL_BW,"10 mg/kg, 9 h, dose level Low",208.7 g
same,APTT,[3],23.8 s
same,Bas,[3],0%
same,Eos,[3],0.8%
same,Fbg,[3],317.6 mg/dL
same,Ht,[3],39.5%
same,Lym,[3],80.6%
same,MCHC,[3],33.4%
same,Mono,[3],3.2%
same,PT,[3],16.2 s
same,Plat,[3],125.8 x10_4/uL
same,RBC,[3],642.4 x10_4/ul
same,Ret,[3],6.1%
same,WBC,[3],90.1 x10_2/uL
same,KIDNEY_L,"10 mg/kg, 9 h, dose level Low",1 g
same,KIDNEY_R,"10 mg/kg, 9 h, dose level Low",1 g
same,KIDNEY_TOTAL,"10 mg/kg, 9 h, dose level Low",1.9 g
same,LIVER,"10 mg/kg, 9 h, dose level Low",8.2 g
same,ALP,"10 mg/kg, 9 h, dose level Low",1357 IU/L
same,AST,"10 mg/kg, 9 h, dose level Low",66.4 IU/L
same,BUN,"10 mg/kg, 9 h, dose level Low",11 mg/dL
same,CRE,"10 mg/kg, 9 h, dose level Low",0.1 mg/dL
same,DBIL,"10 mg/kg, 9 h, dose level Low",0.004 mg/dL
same,GLC,"10 mg/kg, 9 h, dose level Low",180.6 mg/dL
same,IP,"10 mg/kg, 9 h, dose level Low",8.9 mg/dL
same,K,"10 mg/kg, 9 h, dose level Low",4.2 meq/L
same,LDH,"10 mg/kg, 9 h, dose level Low",120.2 IU/L
same,PL,"10 mg/kg, 9 h, dose level Low",128 mg/dL
same,RALB,"10 mg/kg, 9 h, dose level Low",3 g/dL
same,TBIL,"10 mg/kg, 9 h, dose level Low",0.026 mg/dL
same,TC,"10 mg/kg, 9 h, dose level Low",69 mg/dL
same,TG,"10 mg/kg, 9 h, dose level Low",56 mg/dL
same,TP,"10 mg/kg, 9 h, dose level Low",5.4 g/dL
same,gamma-GTP,"10 mg/kg, 9 h, dose level Low",1 IU/L
same,TERMINAL_BW,"10 mg/kg, 24 h, dose level Low",226 g
same,APTT,[4],23.6 s
same,Bas,[4],0%
same,Eos,[4],0.8%
same,Fbg,[4],300.6 mg/dL
same,Ht,[4],38.7%
same,Lym,[4],80.4%
same,MCHC,[4],34%
same,MCV,[4],61.6 fL
same,Mono,[4],3.2%
same,Plat,[4],126.1 x10_4/uL
same,RBC,[4],628.8 x10_4/ul
same,Ret,[4],6.2%
same,WBC,[4],119.3 x10_2/uL
same,KIDNEY_L,"10 mg/kg, 24 h, dose level Low",1 g
same,KIDNEY_R,"10 mg/kg, 24 h, dose level Low",1 g
same,KIDNEY_TOTAL,"10 mg/kg, 24 h, dose level Low",1.9 g
same,LIVER,"10 mg/kg, 24 h, dose level Low",10.2 g
same,ALP,"10 mg/kg, 24 h, dose level Low",1490.2 IU/L
same,ALT,"10 mg/kg, 24 h, dose level Low",37.8 IU/L
same,AST,"10 mg/kg, 24 h, dose level Low",68.2 IU/L
same,BUN,"10 mg/kg, 24 h, dose level Low",16.6 mg/dL
same,CRE,"10 mg/kg, 24 h, dose level Low",0.2 mg/dL
same,DBIL,"10 mg/kg, 24 h, dose level Low",0 mg/dL
same,IP,"10 mg/kg, 24 h, dose level Low",6.4 mg/dL
same,K,"10 mg/kg, 24 h, dose level Low",4.5 meq/L
same,LDH,"10 mg/kg, 24 h, dose level Low",171.6 IU/L
same,PL,"10 mg/kg, 24 h, dose level Low",139.2 mg/dL
same,RALB,"10 mg/kg, 24 h, dose level Low",2.9 g/dL
same,TBIL,"10 mg/kg, 24 h, dose level Low",0.01 mg/dL
same,TC,"10 mg/kg, 24 h, dose level Low",69.4 mg/dL
same,TG,"10 mg/kg, 24 h, dose level Low",100 mg/dL
same,TP,"10 mg/kg, 24 h, dose level Low",5.4 g/dL
same,gamma-GTP,"10 mg/kg, 24 h, dose level Low",1.2 IU/L
same,TERMINAL_BW,"30 mg/kg, 3 h, dose level Middle",214 g
same,APTT,[5],23.2 s
same,Bas,[5],0%
same,Eos,[5],1%
same,Fbg,[5],287.4 mg/dL
same,Ht,[5],39.3%
same,Lym,[5],79%
same,MCHC,[5],34%
